Where two headings read alike, the source gives them in different places.
Assays:
[1] = tested on: Phytophthora (late blight); assay: whole plant or invertebrate; assay type: in vivo; conditions: in Solanum lycopersicum, read-out: inhibit fungal infestation
[2] = tested on: Phytophthora (late blight); assay: whole plant or invertebrate; assay type: in vivo; conditions: in Solanum tuberosum, read-out: inhibit fungal infestation
[3] = tested on: Plasmopara viticola; conditions: read-out: inhibit fungal infestation
Procedure: 5 week old grape seedlings cv. Gutedel are treated with the formulated test compound in a spray chamber. One day after application grape plants are inoculated by spraying a sporangia suspension (4×104 sporangia/ml) on the lower leaf side of the test plants. After an incubation period of 6 days at +21° C. and 95% r. h. in a greenhouse the disease incidence is assessed.

| Structure (SMILES) | melting point | inhibition at 200 ppm [1] | inhibition at 200 ppm [2] | inhibition at 200 ppm [3] |
| --- | --- | --- | --- | --- |
| CCS(=O)(=O)N[C@H](C(=O)NCCc1ccc(OCc2ccccc2)cc1)C(C)C | 133 to 134 °C |  |  |  |
| CCS(=O)(=O)N[C@H](C(=O)NCCc1ccc(OCC#Cc2ccc(Cl)cc2)cc1)C(C)C [Compound A1.1, (S)-2-Ethanesulfonylamino-N-(2-{4-[3-(4-chloro-phenyl)-propargyloxvy]-phenyl}-ethyl)-3-methyl-butyramide] |  | ≥ 80% | ≥ 80% | ≥ 80% |
